Test results taken from paper PMC4793208 (RNA, 2016).

Key:
S. pombe Dcp1/2 = biological target: T1, S. pombe Dcp1/2 (Schizosaccharomyces pombe, UniProt O13828); assay type: biochemical
T1 sequence (O13828 1-243 limits assumed): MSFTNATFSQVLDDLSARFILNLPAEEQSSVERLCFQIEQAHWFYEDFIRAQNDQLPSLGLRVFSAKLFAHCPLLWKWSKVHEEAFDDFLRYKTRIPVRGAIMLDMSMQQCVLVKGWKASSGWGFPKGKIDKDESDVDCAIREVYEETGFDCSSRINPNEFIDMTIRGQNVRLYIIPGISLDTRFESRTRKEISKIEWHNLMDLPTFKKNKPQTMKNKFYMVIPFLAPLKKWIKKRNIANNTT
T1 sequence (Q9P805 1-127 partner): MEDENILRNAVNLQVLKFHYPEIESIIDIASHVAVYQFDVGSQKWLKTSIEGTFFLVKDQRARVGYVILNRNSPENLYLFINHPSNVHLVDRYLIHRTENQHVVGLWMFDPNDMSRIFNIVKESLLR

SpDcp1/2 = biological target: T2, SpDcp1/2 (Schizosaccharomyces pombe, UniProt O13828); assay: Single-turnover kinetic inhibition assay, SpDcp1/2, 29-nt native-capped RNA; assay type: biochemical; details: read-out: KI (affinity for the free enzyme), Dcp1/2 complex, subsaturating enzyme
T2 sequence (O13828 1-243): T1 sequence (O13828 1-243 limits assumed)
T2 sequence (Q9P805 1-127 partner): T1 sequence (Q9P805 1-127 partner)

SMILES | inhibitory properties towards Dcp1/2 decapping (in words) (S. pombe Dcp1/2) | Ki (SpDcp1/2) [µM]
Nc1nc2c(ncn2[C@@H]2O[C@H](COP(=O)(O)OP(=O)(O)OP(=O)(O)O)[C@@H](O)[C@H]2O)c(=O)[nH]1 [Compound 19, GTP] | poor Dcp1/2 inhibitors | 
Nc1ncnc2c1ncn2[C@@H]1O[C@H](COP(=O)(O)OP(=O)(O)OP(=O)(O)O)[C@@H](O)[C@H]1O [Compound 18, ATP] | poor Dcp1/2 inhibitors | 
CO[C@H]1[C@@H](O)[C@H]([n+]2cn(C)c3c(=O)[nH]c(N)nc32)O[C@@H]1COP(=O)([O-])OP(=O)(O)OP(=O)(O)OC[C@H]1O[C@@H](n2cnc3c(=O)[nH]c(N)nc32)[C@H](O)[C@@H]1O [Compound 16, m2^7,3′-OGpppG] | poor Dcp1/2 inhibitors | 
Cn1c[n+]([C@@H]2O[C@H](COP(=O)(O)OP(=O)([O-])OP(=O)(O)OC[C@H]3O[C@@H](n4cnc5c(=O)[nH]c(N)nc54)[C@H](O)[C@@H]3O)[C@@H](O)[C@H]2O)c2nc(N)[nH]c(=O)c21 [m^7GpppG] |  | 1400 ± 300
C[n+]1cn([C@@H]2O[C@H](COP(=O)(O)OP(=O)([O-])OP(=O)(O)OP(=O)(O)OC[C@H]3O[C@@H](n4cnc5c(=O)[nH]c(N)nc54)[C@H](O)[C@@H]3O)[C@@H](O)[C@H]2O)c2nc(N)nc(O)c21 [Compound 17, m^7GppppG] | minimal | 
